Columns and labels:
[1] = test system: Enterococcus faecalis; test: Antibacterial activity against vancomycin-resistant Enterococcus faecalis 09-9 after 18 hrs by CLSI broth microdilution method; format: functional; details: 09-9, 18 h
[2] = test system: Klebsiella pneumoniae; test: Antibacterial activity against new delhi metallo-beta-lactamase-1 harboring Klebsiella pneumoniae ATCC BAA-2146 after 18 hrs by CLSI broth microdilution method; format: functional; details: ATCC BAA-2146, 18 h
[3] = test system: Staphylococcus epidermidis; test: Antibacterial activity against methicillin-resistant Staphylococcus epidermidis 12-8 after 18 hrs by CLSI broth microdilution method; format: functional; details: 12-8, 18 h
[4] = test system: Escherichia coli; test: Antibacterial activity against extended-spectrum beta-lactamase deficient Escherichia coli 12-14 after 18 hrs by CLSI broth microdilution method; format: functional; details: 12-14, 18 h
[5] = test system: Pseudomonas aeruginosa; test: Antibacterial activity against Pseudomonas aeruginosa 12-16 after 18 hrs by CLSI broth microdilution method; format: functional; details: 12-16, 18 h
[6] = test system: Proteus mirabilis; test: Antibacterial activity against Proteus mirabilis 12-6 after 18 hrs by CLSI broth microdilution method; format: functional; details: 12-6, 18 h
[7] = test system: Staphylococcus aureus; test: Antibacterial activity against methicillin-sensitive Staphylococcus aureus ATCC 29213 after 18 hrs by CLSI broth microdilution method; format: functional; details: ATCC 29213, 18 h
[8] = test system: Staphylococcus aureus; test: Antibacterial activity against methicillin-sensitive Staphylococcus aureus 15 after 18 hrs by CLSI broth microdilution method; format: functional; details: Staphylococcus aureus, 15, 18 h
[9] = test system: Escherichia coli; test: Antibacterial activity against extended-spectrum beta-lactamase deficient Escherichia coli 1515 after 18 hrs by CLSI broth microdilution method; format: functional; details: Escherichia coli, 1515, 18 h
[10] = test system: Klebsiella pneumoniae; test: Antibacterial activity against extended-spectrum beta-lactamase harboring Klebsiella pneumoniae ATCC 700603 after 18 hrs by CLSI broth microdilution method; format: functional; details: Klebsiella pneumoniae, 700603, 18 h
[11] = test system: Enterococcus faecium; test: Antibacterial activity against vancomycin-sensitive Enterococcus faecium 12-3 after 18 hrs by CLSI broth microdilution method; format: functional; details: 12-3, 18 h
[12] = test system: Staphylococcus epidermidis; test: Antibacterial activity against methicillin-sensitive Staphylococcus epidermidis ATCC 12228 after 18 hrs by CLSI broth microdilution method; format: functional; details: ATCC 12228, 18 h
[13] = Cytotoxicity against HEK293T cells assessed as reduction in cell viability after 48 hrs by MTS assay; format: cell-based, HEK-293T; details: human
[14] = test system: Escherichia coli; test: Antibacterial activity against extended-spectrum beta-lactamase harboring Escherichia coli 12-15 after 18 hrs by CLSI broth microdilution method; format: functional; details: 12-15, 18 h
[15] = test system: Klebsiella pneumoniae; test: Antibacterial activity against extended-spectrum beta-lactamase deficient Klebsiella pneumoniae 12-4 after 18 hrs by CLSI broth microdilution method; format: functional; details: 12-4, 18 h
[16] = test system: Staphylococcus aureus; test: Antibacterial activity against methicillin-sensitive Staphylococcus aureus 12-28 after 18 hrs by CLSI broth microdilution method; format: functional; details: 12-28, 18 h
[17] = test system: Enterococcus faecalis; test: Antibacterial activity against vancomycin-sensitive Enterococcus faecalis 12-5 after 18 hrs by CLSI broth microdilution method; format: functional; details: 12-5, 18 h
[18] = test system: Pseudomonas aeruginosa; test: Antibacterial activity against Pseudomonas aeruginosa PAO1 after 18 hrs by CLSI broth microdilution method; format: functional; details: PAO1, 18 h
[19] = test system: Serratia marcescens; test: Antibacterial activity against Serratia marcescens ATCC 21074 after 18 hrs by CLSI broth microdilution method; format: functional; details: ATCC 21074, 18 h
[20] = test system: Klebsiella pneumoniae; test: Antibacterial activity against extended-spectrum beta-lactamase deficient Klebsiella pneumoniae 7 after 18 hrs by CLSI broth microdilution method; format: functional; details: Klebsiella pneumoniae, 7, 18 h
[21] = test system: Enterococcus faecalis; test: Antibacterial activity against vancomycin-resistant Enterococcus faecalis ATCC 51299 after 18 hrs by CLSI broth microdilution method; format: functional; details: ATCC 51299, 18 h
[22] = test system: Enterobacter cloacae; test: Antibacterial activity against Enterobacter cloacae ATCC 43560 after 18 hrs by CLSI broth microdilution method; format: functional; details: ATCC 43560, 18 h
[23] = test system: Providencia rettgeri; test: Antibacterial activity against Providencia rettgeri ATCC 31052 after 18 hrs by CLSI broth microdilution method; format: functional; details: ATCC 31052, 18 h
[24] = test system: Enterococcus faecalis; test: Antibacterial activity against vancomycin-sensitive Enterococcus faecalis ATCC 29212 after 18 hrs by CLSI broth microdilution method; format: functional; details: ATCC 29212, 18 h
[25] = test system: Staphylococcus aureus; test: Antibacterial activity against methicillin-resistant Staphylococcus aureus 12-33 after 18 hrs by CLSI broth microdilution method; format: functional; details: 12-33, 18 h
[26] = test system: Klebsiella pneumoniae; test: Antibacterial activity against extended-spectrum beta-lactamase harboring Klebsiella pneumoniae 12-8 after 18 hrs by CLSI broth microdilution method; format: functional; details: 12-8, 18 h
[27] = test system: Acinetobacter calcoaceticus; test: Antibacterial activity against Acinetobacter calcoaceticus ATCC 19606 after 18 hrs by CLSI broth microdilution method; format: functional; details: ATCC 19606, 18 h
[28] = test system: Proteus vulgaris; test: Antibacterial activity against Proteus vulgaris ATCC 29905 after 18 hrs by CLSI broth microdilution method; format: functional; details: ATCC 29905, 18 h
[29] = test system: Enterococcus faecium; test: Antibacterial activity against vancomycin-resistant Enterococcus faecium 12-1 after 18 hrs by CLSI broth microdilution method; format: functional; details: 12-1, 18 h
[30] = test system: Enterococcus faecium; test: Antibacterial activity against vancomycin-resistant Enterococcus faecium ATCC 700221 after 18 hrs by CLSI broth microdilution method; format: functional; details: ATCC 700221, 18 h
[31] = test system: Pseudomonas aeruginosa; test: Antibacterial activity against Pseudomonas aeruginosa ATCC 27853 after 18 hrs by CLSI broth microdilution method; format: functional; details: ATCC 27853, 18 h
[32] = test system: Klebsiella aerogenes; test: Antibacterial activity against Enterobacter aerogenes ATCC 13048 after 18 hrs by CLSI broth microdilution method; format: functional; details: ATCC 13048, 18 h
[33] = test system: Staphylococcus epidermidis; test: Antibacterial activity against methicillin-sensitive Staphylococcus epidermidis 12-6 after 18 hrs by CLSI broth microdilution method; format: functional; details: 12-6, 18 h
[34] = test system: Staphylococcus aureus; test: Antibacterial activity against methicillin-resistant Staphylococcus aureus ATCC 33591 after 18 hrs by CLSI broth microdilution method; format: functional; details: ATCC 33591, 18 h
[35] = test system: Escherichia coli; test: Antibacterial activity against extended-spectrum beta-lactamase deficient Escherichia coli ATCC 25922 after 18 hrs by CLSI broth microdilution method; format: functional; details: ATCC 25922, 18 h
[36] = test system: Stenotrophomonas maltophilia; test: Antibacterial activity against Stenotrophomonas maltophilia ATCC 13636 after 18 hrs by CLSI broth microdilution method; format: functional; details: ATCC 13636, 18 h
[37] = test system: Citrobacter freundii; test: Antibacterial activity against Citrobacter freundii ATCC 43864 after 18 hrs by CLSI broth microdilution method; format: functional; details: ATCC 43864, 18 h

CN(C)C(=N)c1ccc2cc(-c3cncc(-c4cc5ccc(C(=N)N(C)C)cc5[nH]4)c3)[nH]c2c1
0.5 µg/mL: MIC [3] | MIC [7] | MIC [8] | MIC [16] | MIC [25] | MIC [34]
4 µg/mL: MIC [2] | MIC [20] | MIC [22] | MIC [26] | MIC [28] | MIC [32]
> 64 µg/mL: MIC [5] | MIC [18]
0.25 µg/mL: MIC [12] | MIC [33]
16 µg/mL: MIC [19] | MIC [31]
2 µg/mL: MIC [1] | MIC [9] | MIC [11] | MIC [17] | MIC [21] | MIC [23] | MIC [24] | MIC [30] | MIC [35]
1.75 µg/mL: CC50 at 48 h [13]
1 µg/mL: MIC [4] | MIC [14] | MIC [29]
8 µg/mL: MIC [6] | MIC [10] | MIC [15] | MIC [27] | MIC [36] | MIC [37]

Reference: ChEMBL document CHEMBL4229379, “Synthesis and structure-activity relationship of novel bisindole amidines active against MDR Gram-positive and Gram-negative bacteria” (Eur J Med Chem, 2018)
